Series [1] in a line: In vivo concentration-time course of paclitaxel after intraperitoneal injection. The conditions noted are these: rat, 16 mg/kg intraperitoneal, OCP or conventional formulation, HPLC. As for the experimental part: “Conventional” formulations of paclitaxel were prepared by adding 6 mg paclitaxel to 1 mL of a mixture (1:1, v/v) of anhydrous alcohol and Cremophor® EL (Sigma Chemical Company, St. Louis, Mo.). […] At the indicated time points, animals were euthanized and blood, peritoneal fluid, liver, and spleen samples were collected, processed and quickly frozen.
Paclitaxel concentrations in plasma, peritoneal fluid, and homogenized tissues were determined by HPLC after liquid-liquid extraction of the samples with diethyl ether followed by solid-phase extraction (Bond Elut; Varian, Harbor City, Calif.). The samples were then suspended in 45:15:40 acetonitrile:methanol:water, and 50 μL was injected onto a Waters Symmetry C18 column (Waters, Taunton, Mass.) with a Hewlett-Packard Model 1100 solvent delivery system (Hewlett-Packard, Wilmington, Del.). The mobile phase was a mixture of acetonitrile, methanol, and 0.2 M ammonium acetate at pH 5 (45:15:40) with a rate of 1 mL/min; detection was at a wavelength of 230 nm. Apparent terminal half-lives (T1/2beta) were estimated from the terminal log-linear decline of the concentration-time profiles.

For another series, the system named is microtubule bundling. The conditions noted are these: Rowinsky et al., Cancer Research 48: 4093-4100, 1988; cited from earlier work.
The nature of series [2]: Solubility of bupivacaine free-base in triolein or tricaprylin. In kind it is physicochemical. As for the experimental part: To confirm that the formation of bupivacaine crystals was related to differing solubility of the drug in the oils used, a solubility experiment was performed. Varying amounts of bupivacaine free-base were added to 1.0 g aliquots of either triolein or tricaprylin in small vials with Teflon-lined screw caps. These vials were heated to ˜70° C., shaken vigorously, cooled to room temperature, then 1.0 mL of 10 mM lysine/5% sorbitol was added to each vial. The vials were put in a 4° C. cold room for a month. […] This vial was the only one in which a precipitate disappeared upon warming to room temperature.

For another series, the system named is response to pin pricks. The series can be described thus: Guinea pig intracutaneous injection, response to pin pricks. The format is in vivo, guinea pigs. The conditions noted are these: 1.0 mL intracutaneous, equivalent to 1% bupivacaine HCl monohydrate. As for the experimental part:
This is used in an assay of anesthetic effect. Previously shaved guinea pigs (4-5 per group) were marked with a stencil in the form of a circular array, with 17 tick marks at various radii and directions from the center of the array. Animals anesthetized with Halothane were injected intracutaneously with 1.0 mL of either the tricaprylin-core bupivacaine suspension or a solution of 1% bupivacaine HCl monohydrate in 5% sorbitol. The response to pin pricks was tested at various post-injection intervals (30 min, 3, 6, 9, 12, 18, 24, 30 and 36 hours) and the results summarized in FIG. 3. A vocalization or muscle twitch was considered a positive response. The guinea pigs' response to the bupivacaine solution decayed to half of its maximum at about 3.6 hours after injection. An equivalent (on a molar basis) dose of bupivacaine free base tricaprylin-core suspension took about 8½ hours to decay to the same number of negative responses, and took about 11 hours to decay to half of the maximal response for this formulation.

Where [3] appears, read: 4° C. for a month, with 10 mM lysine/5% sorbitol.

Converted amounts (≈) assume the structure as drawn. Counter-ions that a name gives are not always drawn. A value given as a limit tells only on which side of the number the result lay.

Results on 3 compounds are retold here after patent US20040213837A1, “Oil-core compositions for the sustained release of hydrophobic drugs” (priority 2002, published 2004).

As to `CC(=O)O[C@H]1C(=O)[C@@]2(C)[C@H]([C@H](OC(=O)c3ccccc3)[C@]3(O)C[C@H](OC(=O)[C@H](O)[C@@H](NC(=O)c4ccccc4)c4ccccc4)C(C)=C1C3(C)C)[C@]1(OC(C)=O)CO[C@@H]1C[C@@H]2O` [Paclitaxel, paclitaxel], the “Paclitaxel levels in plasma” value in series [1] is listed as “below the limit of detection”. In the series with microtubule bundling, the “minimum inhibitory concentration required to induce microtubule bundling and other cytotoxic effects in vitro” value is 0.085 µg/mL (≈ 0.0995 µM).
Regarding `CCCCN1CCCCC1C(=O)Nc1c(C)cccc1C` (centres unmarked) [bupivacaine free-base, bupivacaine], the “relative solubility in tricaprylin and triolein” value in series [2] is recorded as “more soluble in tricaprylin than in triolein”. Also, in series [2] (setting [3]), the “bupivacaine content at which no precipitates were seen, in tricaprylin” value is not above 40 mg per g tricaprylin; the “bupivacaine content at which no precipitates were seen, in triolein” value was not above 20 mg per g triolein; the “bupivacaine content at which precipitates or large masses were seen, in tricaprylin” value is on record as not below 50 mg per g tricaprylin; the “bupivacaine content at which precipitates or large masses were seen, in triolein” value is not below 30 mg per g triolein.
With `CCCCN1CCCCC1C(=O)Nc1c(C)cccc1C` (centres unmarked) [bupivacaine solution, bupivacaine HCl monohydrate], the “time for response to decay to half of its maximum” value with response to pin pricks is on record as “about 3.6 hours”.
